Test results: ChEMBL document CHEMBL5724914, “Linking interpersonal differences in gut microbiota composition and drug biotransformation activity” (2024)

assay: (§1) The drug is tested on Z-021 corresponding to metagenome with ENA study accession number: PRJEB37062 and ENA sample accession number: ERS12561820 for biotransformation under anaerobic condition. The drug concentrations were measured over 9 timepoints collected between 0 and 24 hours of incubation by liquid-chromatography-coupled mass spectrometry (LC–MS); conditions: 2 µM
Further: call rule not given here.

Compound	Bacterial Biotransformation
COc1cc2c(c(OC)c1OC)-c1ccc(OC)c(=O)cc1[C@@H](NC(C)=O)CC2 [COLCHICINE]	Compound NOT metabolized
CN1C(C(=O)Nc2ccccn2)=C(O)c2sccc2S1(=O)=O [TENOXICAM]	Compound metabolized
OC(CCN1CCCCC1)(c1ccccc1)C1CCCCC1 (stereo unspecified) [TRIHEXYPHENIDYL]	Compound metabolized
CNC(=C[N+](=O)[O-])NCCSCc1csc(CN(C)C)n1 [NIZATIDINE]	Compound NOT metabolized
Cc1nc2n(c(=O)c1CCN1CCC(c3noc4cc(F)ccc34)CC1)CCCC2O (stereo unspecified) [PALIPERIDONE]	Compound metabolized

Further lines, results first:

Bacterial Biotransformation	Compound
Compound metabolized	NC(CO)(CO)CO.O=C(c1ccccc1)c1ccc2n1CCC2C(=O)O (stereo unspecified) [KETOROLAC TROMETHAMINE]
Compound metabolized	CCN(CC)CCNC(C(=O)OCCC(C)C)c1ccccc1.Cl.Cl (stereo unspecified)
Compound metabolized	CCOC(=O)[C@H](CCc1ccccc1)N[C@H]1CCc2ccccc2N(CC(=O)O)C1=O [BENAZEPRIL]
Compound metabolized	C=CCc1ccccc1OCC(O)CNC(C)C (stereo unspecified) [ALPRENOLOL]

assay: as §1, with “Z-008” for “Z-021”, “ERS12561808” for “ERS12561820”; conditions: 2 µM

Compound	Bacterial Biotransformation
COc1cc2c(c(OC)c1OC)-c1ccc(OC)c(=O)cc1[C@@H](NC(C)=O)CC2 [COLCHICINE]	Compound NOT metabolized
CN1C(C(=O)Nc2ccccn2)=C(O)c2sccc2S1(=O)=O [TENOXICAM]	Compound NOT metabolized
OC(CCN1CCCCC1)(c1ccccc1)C1CCCCC1 (stereo unspecified) [TRIHEXYPHENIDYL]	Compound NOT metabolized
CNC(=C[N+](=O)[O-])NCCSCc1csc(CN(C)C)n1 [NIZATIDINE]	Compound NOT metabolized
Cc1nc2n(c(=O)c1CCN1CCC(c3noc4cc(F)ccc34)CC1)CCCC2O (stereo unspecified) [PALIPERIDONE]	Compound NOT metabolized

Continued, values first:

Bacterial Biotransformation	Compound
Compound NOT metabolized	NC(CO)(CO)CO.O=C(c1ccccc1)c1ccc2n1CCC2C(=O)O (stereo unspecified) [KETOROLAC TROMETHAMINE]
Compound NOT metabolized	CCN(CC)CCNC(C(=O)OCCC(C)C)c1ccccc1.Cl.Cl (stereo unspecified)
Compound metabolized	CCOC(=O)[C@H](CCc1ccccc1)N[C@H]1CCc2ccccc2N(CC(=O)O)C1=O [BENAZEPRIL]
Compound NOT metabolized	C=CCc1ccccc1OCC(O)CNC(C)C (stereo unspecified) [ALPRENOLOL]

assay: (§2) The drug is tested on Z-003 corresponding to pig gut metagenome with ENA study accession number: PRJEB37062 and ENA sample accession number: ERS12561803 for biotransformation under anaerobic condition. The drug concentrations were measured over 9 timepoints collected between 0 and 24 hours of incubation by liquid-chromatography-coupled mass spectrometry (LC–MS); conditions: 2 µM

Compound	Bacterial Biotransformation
COc1cc2c(c(OC)c1OC)-c1ccc(OC)c(=O)cc1[C@@H](NC(C)=O)CC2 [COLCHICINE]	Compound NOT metabolized
CN1C(C(=O)Nc2ccccn2)=C(O)c2sccc2S1(=O)=O [TENOXICAM]	Compound NOT metabolized
OC(CCN1CCCCC1)(c1ccccc1)C1CCCCC1 (stereo unspecified) [TRIHEXYPHENIDYL]	Compound metabolized
CNC(=C[N+](=O)[O-])NCCSCc1csc(CN(C)C)n1 [NIZATIDINE]	Compound NOT metabolized
Cc1nc2n(c(=O)c1CCN1CCC(c3noc4cc(F)ccc34)CC1)CCCC2O (stereo unspecified) [PALIPERIDONE]	Compound NOT metabolized

The remaining lines, values ahead:

Bacterial Biotransformation	Compound
Compound metabolized	NC(CO)(CO)CO.O=C(c1ccccc1)c1ccc2n1CCC2C(=O)O (stereo unspecified) [KETOROLAC TROMETHAMINE]
Compound metabolized	CCN(CC)CCNC(C(=O)OCCC(C)C)c1ccccc1.Cl.Cl (stereo unspecified)
Compound metabolized	CCOC(=O)[C@H](CCc1ccccc1)N[C@H]1CCc2ccccc2N(CC(=O)O)C1=O [BENAZEPRIL]
Compound metabolized	C=CCc1ccccc1OCC(O)CNC(C)C (stereo unspecified) [ALPRENOLOL]

assay: as §2, with “WLS-370” for “Z-003”, “human” for “pig”, “ERS12561793” for “ERS12561803”; conditions: 2 µM

Compound	Bacterial Biotransformation
COc1cc2c(c(OC)c1OC)-c1ccc(OC)c(=O)cc1[C@@H](NC(C)=O)CC2 [COLCHICINE]	Compound NOT metabolized
CN1C(C(=O)Nc2ccccn2)=C(O)c2sccc2S1(=O)=O [TENOXICAM]	Compound NOT metabolized
OC(CCN1CCCCC1)(c1ccccc1)C1CCCCC1 (stereo unspecified) [TRIHEXYPHENIDYL]	Compound metabolized
CNC(=C[N+](=O)[O-])NCCSCc1csc(CN(C)C)n1 [NIZATIDINE]	Compound NOT metabolized
Cc1nc2n(c(=O)c1CCN1CCC(c3noc4cc(F)ccc34)CC1)CCCC2O (stereo unspecified) [PALIPERIDONE]	Compound metabolized

Next, values leading:

Bacterial Biotransformation	Compound
Compound metabolized	NC(CO)(CO)CO.O=C(c1ccccc1)c1ccc2n1CCC2C(=O)O (stereo unspecified) [KETOROLAC TROMETHAMINE]
Compound metabolized	CCN(CC)CCNC(C(=O)OCCC(C)C)c1ccccc1.Cl.Cl (stereo unspecified)
Compound metabolized	CCOC(=O)[C@H](CCc1ccccc1)N[C@H]1CCc2ccccc2N(CC(=O)O)C1=O [BENAZEPRIL]
Compound NOT metabolized	C=CCc1ccccc1OCC(O)CNC(C)C (stereo unspecified) [ALPRENOLOL]

assay: as §2, with “WLS-090” for “Z-003”, “human” for “pig”, “ERS12561753” for “ERS12561803”; conditions: 2 µM

Compound	Bacterial Biotransformation
COc1cc2c(c(OC)c1OC)-c1ccc(OC)c(=O)cc1[C@@H](NC(C)=O)CC2 [COLCHICINE]	Compound NOT metabolized
CN1C(C(=O)Nc2ccccn2)=C(O)c2sccc2S1(=O)=O [TENOXICAM]	Compound NOT metabolized
OC(CCN1CCCCC1)(c1ccccc1)C1CCCCC1 (stereo unspecified) [TRIHEXYPHENIDYL]	Compound metabolized
CNC(=C[N+](=O)[O-])NCCSCc1csc(CN(C)C)n1 [NIZATIDINE]	Compound NOT metabolized
Cc1nc2n(c(=O)c1CCN1CCC(c3noc4cc(F)ccc34)CC1)CCCC2O (stereo unspecified) [PALIPERIDONE]	Compound metabolized

Further lines, results first:

Bacterial Biotransformation	Compound
Compound metabolized	NC(CO)(CO)CO.O=C(c1ccccc1)c1ccc2n1CCC2C(=O)O (stereo unspecified) [KETOROLAC TROMETHAMINE]
Compound metabolized	CCN(CC)CCNC(C(=O)OCCC(C)C)c1ccccc1.Cl.Cl (stereo unspecified)
Compound metabolized	CCOC(=O)[C@H](CCc1ccccc1)N[C@H]1CCc2ccccc2N(CC(=O)O)C1=O [BENAZEPRIL]
Compound metabolized	C=CCc1ccccc1OCC(O)CNC(C)C (stereo unspecified) [ALPRENOLOL]

assay: as §2, with “WLS-077” for “Z-003”, “human” for “pig”, “ERS12561750” for “ERS12561803”; conditions: 2 µM

Compound	Bacterial Biotransformation
COc1cc2c(c(OC)c1OC)-c1ccc(OC)c(=O)cc1[C@@H](NC(C)=O)CC2 [COLCHICINE]	Compound metabolized
CN1C(C(=O)Nc2ccccn2)=C(O)c2sccc2S1(=O)=O [TENOXICAM]	Compound NOT metabolized
OC(CCN1CCCCC1)(c1ccccc1)C1CCCCC1 (stereo unspecified) [TRIHEXYPHENIDYL]	Compound metabolized
CNC(=C[N+](=O)[O-])NCCSCc1csc(CN(C)C)n1 [NIZATIDINE]	Compound NOT metabolized
Cc1nc2n(c(=O)c1CCN1CCC(c3noc4cc(F)ccc34)CC1)CCCC2O (stereo unspecified) [PALIPERIDONE]	Compound metabolized

The remaining lines, values ahead:

Bacterial Biotransformation	Compound
Compound metabolized	NC(CO)(CO)CO.O=C(c1ccccc1)c1ccc2n1CCC2C(=O)O (stereo unspecified) [KETOROLAC TROMETHAMINE]
Compound metabolized	CCN(CC)CCNC(C(=O)OCCC(C)C)c1ccccc1.Cl.Cl (stereo unspecified)
Compound metabolized	CCOC(=O)[C@H](CCc1ccccc1)N[C@H]1CCc2ccccc2N(CC(=O)O)C1=O [BENAZEPRIL]
Compound NOT metabolized	C=CCc1ccccc1OCC(O)CNC(C)C (stereo unspecified) [ALPRENOLOL]

assay: as §2, with “WLS-073” for “Z-003”, “human” for “pig”, “ERS12561749” for “ERS12561803”; conditions: 2 µM

Compound	Bacterial Biotransformation
COc1cc2c(c(OC)c1OC)-c1ccc(OC)c(=O)cc1[C@@H](NC(C)=O)CC2 [COLCHICINE]	Compound metabolized
CN1C(C(=O)Nc2ccccn2)=C(O)c2sccc2S1(=O)=O [TENOXICAM]	Compound NOT metabolized
OC(CCN1CCCCC1)(c1ccccc1)C1CCCCC1 (stereo unspecified) [TRIHEXYPHENIDYL]	Compound metabolized
CNC(=C[N+](=O)[O-])NCCSCc1csc(CN(C)C)n1 [NIZATIDINE]	Compound metabolized
Cc1nc2n(c(=O)c1CCN1CCC(c3noc4cc(F)ccc34)CC1)CCCC2O (stereo unspecified) [PALIPERIDONE]	Compound metabolized

Further lines, results first:

Bacterial Biotransformation	Compound
Compound metabolized	NC(CO)(CO)CO.O=C(c1ccccc1)c1ccc2n1CCC2C(=O)O (stereo unspecified) [KETOROLAC TROMETHAMINE]
Compound metabolized	CCN(CC)CCNC(C(=O)OCCC(C)C)c1ccccc1.Cl.Cl (stereo unspecified)
Compound metabolized	CCOC(=O)[C@H](CCc1ccccc1)N[C@H]1CCc2ccccc2N(CC(=O)O)C1=O [BENAZEPRIL]
Compound NOT metabolized	C=CCc1ccccc1OCC(O)CNC(C)C (stereo unspecified) [ALPRENOLOL]

conditions: human gut metagenome, 24 h, 2 µM

Compound	Bacterial Biotransformation
COc1cc2c(c(OC)c1OC)-c1ccc(OC)c(=O)cc1[C@@H](NC(C)=O)CC2 [COLCHICINE]	Compound metabolized
CN1C(C(=O)Nc2ccccn2)=C(O)c2sccc2S1(=O)=O [TENOXICAM]	Compound NOT metabolized
OC(CCN1CCCCC1)(c1ccccc1)C1CCCCC1 (stereo unspecified) [TRIHEXYPHENIDYL]	Compound NOT metabolized
CNC(=C[N+](=O)[O-])NCCSCc1csc(CN(C)C)n1 [NIZATIDINE]	Compound NOT metabolized
Cc1nc2n(c(=O)c1CCN1CCC(c3noc4cc(F)ccc34)CC1)CCCC2O (stereo unspecified) [PALIPERIDONE]	Compound NOT metabolized

Next, values leading:

Bacterial Biotransformation	Compound
Compound metabolized	NC(CO)(CO)CO.O=C(c1ccccc1)c1ccc2n1CCC2C(=O)O (stereo unspecified) [KETOROLAC TROMETHAMINE]
Compound metabolized	CCN(CC)CCNC(C(=O)OCCC(C)C)c1ccccc1.Cl.Cl (stereo unspecified)
Compound metabolized	CCOC(=O)[C@H](CCc1ccccc1)N[C@H]1CCc2ccccc2N(CC(=O)O)C1=O [BENAZEPRIL]
Compound NOT metabolized	C=CCc1ccccc1OCC(O)CNC(C)C (stereo unspecified) [ALPRENOLOL]

conditions: human gut metagenome, 24 h, 2 µM; remark: another data set of the same source

Compound	Bacterial Biotransformation
COc1cc2c(c(OC)c1OC)-c1ccc(OC)c(=O)cc1[C@@H](NC(C)=O)CC2 [COLCHICINE]	Compound NOT metabolized
CN1C(C(=O)Nc2ccccn2)=C(O)c2sccc2S1(=O)=O [TENOXICAM]	Compound NOT metabolized
OC(CCN1CCCCC1)(c1ccccc1)C1CCCCC1 (stereo unspecified) [TRIHEXYPHENIDYL]	Compound metabolized
CNC(=C[N+](=O)[O-])NCCSCc1csc(CN(C)C)n1 [NIZATIDINE]	Compound NOT metabolized
Cc1nc2n(c(=O)c1CCN1CCC(c3noc4cc(F)ccc34)CC1)CCCC2O (stereo unspecified) [PALIPERIDONE]	Compound metabolized

Next, values leading:

Bacterial Biotransformation	Compound
Compound metabolized	NC(CO)(CO)CO.O=C(c1ccccc1)c1ccc2n1CCC2C(=O)O (stereo unspecified) [KETOROLAC TROMETHAMINE]
Compound NOT metabolized	CCN(CC)CCNC(C(=O)OCCC(C)C)c1ccccc1.Cl.Cl (stereo unspecified)
Compound NOT metabolized	CCOC(=O)[C@H](CCc1ccccc1)N[C@H]1CCc2ccccc2N(CC(=O)O)C1=O [BENAZEPRIL]
Compound NOT metabolized	C=CCc1ccccc1OCC(O)CNC(C)C (stereo unspecified) [ALPRENOLOL]
